Assay results: PMC4601640, “Stability of the Human Hsp90-p50^Cdc37 Chaperone Complex against Nucleotides and Hsp90 Inhibitors, and the Influence of Phosphorylation by Casein Kinase 2” (Molecules, 2015)
“Also recorded” adds a separate entry of the source. Like-named read-outs stand apart in the source and are kept apart here.

How the values were obtained:
[1] = target: hHsp90β-FL; settings: read-out: Reported Kd, cited from earlier work
[2] = target: T1, ΔHsp90-p50^Cdc37 (Homo sapiens, UniProt P08238, DEL220-271/E274G/I272G/K273G/K275G); assay: ELISA complex formation, ΔHsp90; assay type: binding
T1 construct: human Hsp90β (1-724 Δ220-275); made in house; host or cells: E. coli BL21 Star (DE3) (ΔHsp90β); E. coli BL21 (DE3) (GST-p50Cdc37)

[3] = target: T2, Hsp90-(p)p50^Cdc37 (Homo sapiens, UniProt P08238); assay: ELISA complex formation, CK2-phosphorylated p50^Cdc37; assay type: binding
T2 construct: The gene encoding human full-length Hsp90β was subcloned from T47D cell line cDNA; made in house; host or cells: E. coli BL21 Star (DE3) (Hsp90β); E. coli BL21 (DE3) (GST-p50Cdc37)

[4] = target: T3, hHsp90β-FL (Homo sapiens, UniProt P08238); assay: ITC direct binding to full-length Hsp90β; settings: for Kd: unphosphorylated hHsp90β-FL, 30 °C, read-out: Observed Kd
T3 construct: The gene encoding human full-length Hsp90β was subcloned from T47D cell line cDNA; His6 (N); made in house; host or cells: E. coli BL21 Star (DE3)
Procedure: (§1) Binding of p50^Cdc37 and small molecules to Hsp90 was analyzed using a MicroCal iTC200 titration calorimeter (GE Healthcare). Compounds or p50^Cdc37 were titrated into a solution of Hsp90 using the following concentrations: p50^Cdc37 (200 µM) into Hsp90 (20 µM), nucleotides (600 µM) into Hsp90 (30 µM), inhibitors (300 µM) into Hsp90 (30 µM). […] All experiments were conducted in 50 mM HEPES pH 7.5, 10 mM MgCl2 at 30 °C. For titration of inhibitors, the buffer contained 5% DMSO. […] Generation of heat due to dilution was determined in separate experiments by diluting protein into buffer and subtracting these as blank values for each injection. Corrected heat values were fitted using a nonlinear least squares curve-fitting algorithm (Microcal Origin 7.0) to obtain the stoichiometry (n), binding constants (Ka, Kd), and change in enthalpy for each enzyme-ligand interaction (ΔH).

[5] = target: (p)Hsp90-p50^Cdc37 (Homo sapiens, UniProt P08238); assay: ELISA complex formation, CK2-phosphorylated Hsp90β; settings: ELISA
Procedure: (§2) Phosphorylation of full-length Hsp90β and p50^Cdc37 was performed using purified full-length CK2α. The reaction was carried out in a 2.5 mL volume containing 50 µM Hsp90β or p50^Cdc37, 0.5 µM CK2α, 0.5 mM ATP, 20 mM Tris (pH 7.5), 50 mM KCl, and 10 mM MgCl2, and was incubated for 1 h at 30 °C. Samples were removed for analysis of phosphorylation status, and the proteins were re-buffered into 50 mM HEPES (pH 7.5), 150 mM NaCl, and 1 mM DTT (ELISA), or into 50 mM HEPES (pH 7.5) for ITC, using PD-10 gravity columns (GE Healthcare). Dephosphorylation was performed using 2.5 units of FastAP (alkaline phosphatase from Thermo Scientific) in buffer containing 10 mM Tris (pH 8.0 at 37 °C), 5 mM MgCl2, 100 mM KCl, 0.02% Triton-X 100, and 0.5 mg/mL BSA for 1 h at 37 °C.
(§3) Purified GST-p50^Cdc37 (4 µM) or control (purified GST alone, 4 µM) was added to glutathione-coated 96-well plates (Pierce) in 100 μL protein buffer (50 mM HEPES, pH 7.5, 150 mM NaCl, 10 mM MgCl2, 0.05% Tween-20, and 0.1% BSA) and incubated for 1 h at room temperature (triplicate wells per sample). […] The mixtures were then added to the wells (100 μL per well, in triplicates) and incubated for 1 h at room temperature before washing. The wells were incubated with anti-His6-tag mAb (1 mg/mL stock, Abcam), diluted 1:2000 in antibody buffer (50 mM HEPES pH 7.5, 150 mM NaCl, 10 mM MgCl2, 0.05% Tween-20, and 1% BSA) for 1 h, followed by secondary antibody (horse anti-mouse HRP-conjugated IgG, Cell Signaling Technology), diluted 1:5000 in antibody buffer, for 1.5 h at room temperature. After washing three times with 1× HBS-T and two times with 1× HBS, 200 μL HRP substrate (SigmaFast OPD) was added per well. The plates were incubated at room temperature, and the absorbance was read at 450 nm after 15 min and 30 min using a SpectraMax 340 PC plate reader (Molecular Devices). For dose-response measurements, absorption values were corrected for unspecific binding of Hsp90 to immobilized GST, and the raw data were fit to equation (1), where f(I) is the fraction of complex remaining, [I] is the concentration of the inhibitor, IC50 is the half maximal inhibitory concentration against Hsp90-p50^Cdc37 complex formation, n is the Hill slope coefficient, min is the signal remaining at high inhibitor concentrations and max is the signal of the uninhibited complex. Corrected absorption values (ΔOD) for the uninhibited Hsp90-p50^Cdc37 complex (unphosphorylated and phosphorylated) were in the range of 0.4–1.0. Data were expressed relative to the respective max value of Equation (1). (1) f(I)=min+(max−min)/1+([I]/IC50)^n

[6] = target: (p)Hsp90-(p)p50^Cdc37 (Homo sapiens, UniProt P08238); assay: ELISA complex formation, both proteins CK2-phosphorylated; settings: for disruption of the phosphorylated complex: CK2-phosphorylated complex; for IC50: ELISA, (p)Hsp90-(p)p50^Cdc37 (phosphorylated complex)
Procedure: as §2, §3

[7] = target: T4, Hsp90-p50^Cdc37 (Homo sapiens, UniProt P08238); assay: ELISA complex formation, immobilized GST-p50^Cdc37 and Hsp90β, unphosphorylated; assay type: binding; settings: for IC50: ELISA, Hsp90-p50^Cdc37 (unphosphorylated); for inhibitory activity against the complex: unphosphorylated or phosphorylated complex, in vitro
T4 construct: The gene encoding human full-length Hsp90β was subcloned from T47D cell line cDNA; made in house; host or cells: E. coli BL21 Star (DE3) (Hsp90β); E. coli BL21 (DE3) (GST-p50Cdc37)

[8] = target: T5, ΔHsp90β interaction with GST-p50^Cdc37 (Homo sapiens, UniProt P08238, DEL220-271/E274G/I272G/K273G/K275G); assay: GST pull-down of ΔHsp90β with GST-p50^Cdc37; assay type: binding; settings: for effect on complex in GST pull-down: 1 mM nucleotide or 0.1 mM inhibitor, 15 min incubation, SDS-PAGE
T5 construct: human Hsp90β (1-724 Δ220-275); made in house; host or cells: E. coli BL21 Star (DE3) (ΔHsp90β); E. coli BL21 (DE3) (GST-p50Cdc37)
Procedure: GST pull-down experiments were carried out using 1 mL GST 4 FastFlow resin in 8 mL Flex columns (Kontes). All experiments were performed at room temperature by gravity flow. Loading and wash buffers contained 50 mM Tris pH 8, 50 mM KCl, 5 mM MgCl2, and 5% DMSO. The elution buffer contained an additional 10 mM reduced glutathione. […] The resin was washed with 20 CV wash buffer, and samples were eluted with 2 CV elution buffer. Eluted protein was analysed on 12% SDS-PAGE stained with Coomassie blue for visualization.

[9] = target: T6, hΔHsp90β (Homo sapiens, UniProt P08238, DEL220-271/E274G/I272G/K273G/K275G); assay: ITC direct binding to Hsp90β deletion mutant lacking the charged linker; settings: 50 mM HEPES pH 7.5, 10 mM MgCl2, 30 °C, read-out: Observed Kd
T6 construct: human Hsp90β (1-724 Δ220-275); His6 (N); made in house; host or cells: E. coli BL21 Star (DE3)
Description: The gene encoding human full-length Hsp90β was subcloned from T47D cell line cDNA, and human full-length CK2α was subcloned from MCF7 cell line cDNA, both a kind gift from Dr. Jonathan Lancaster, Moffitt Cancer Center. […] The deleted sections in the two Hsp90 genes were each replaced by four glycine residues. Hsp90α and Hsp90β were subcloned into the pET28a vector (Novagen), and p50^Cdc37 was subcloned into a modified pET28a vector containing a maltose-binding protein (MBP) solubility tag and a PreScission protease cleavage site using restriction enzymes BamHI and NotI (Fermentas) and T4 DNA ligase (Invitrogen) following the manufacturers’ instructions. BamHI was substituted with NdeI for full-length Hsp90β. p50^Cdc37 was also subcloned into the pGEX6P-1 vector (GE Healthcare) using the same procedure as above to provide an N-terminal GST-tag for GST pull-down and ELISA experiments. The plasmids were transformed into E. coli BL21 Star (DE3) (Hsp90α and Hsp90β, Invitrogen), Tuner (DE3) (p50^Cdc37 modified pET28a, Novagen), or BL21 (DE3) (p50^Cdc37 pGEX6P-1, Stratagene) expression strains. Transformed cells were grown in LB broth at 37 °C until the OD600 reached 0.4, then the temperature was lowered to 16 °C, and cells were induced with 0.1 mM IPTG at OD600 = 0.5–0.7. Cultures were then grown for 20–24 h before harvesting by centrifugation (30 min at 30,000× g, 4 °C).
as §1

[10] = target: h(p)Hsp90β-FL (Homo sapiens, UniProt P08238); assay: ITC direct binding to CK2-phosphorylated full-length Hsp90β; settings: 30 °C, read-out: Observed Kd
Procedure: as §1

[11] = tested on: Hsp90β-p50^Cdc37 complex; design: method as in PMID 19858214; settings: ref [26]; cited from earlier work
[12] = target: yHsp82-FL; settings: yHsp82-FL; ref [34]; read-out: Reported Kd; cited from earlier work
[13] = tested on: yeast Hsp90 complex formation with human p50^Cdc37 or yeast Cdc37 protein; design: method as in PMID 11916974; settings: ref [39]; cited from earlier work
[14] = target: T7, interaction of the N-terminal domain of Hsp90β with p50^Cdc37 (Homo sapiens, UniProt P08238); assay: ITC of N-terminal Hsp90β with p50^Cdc37 in the presence of ADP; assay type: binding; settings: 5 mM ADP
T7 construct: human N-terminal Hsp90β (1-219, denoted Hsp90β-N); His6 (N); made in house; host or cells: E. coli BL21 Star (DE3) (Hsp90β-N); E. coli Tuner (DE3) (p50Cdc37)
Procedure: Binding of p50^Cdc37 and small molecules to Hsp90 was analyzed using a MicroCal iTC200 titration calorimeter (GE Healthcare). Compounds or p50^Cdc37 were titrated into a solution of Hsp90 using the following concentrations: p50^Cdc37 (200 µM) into Hsp90 (20 µM), nucleotides (600 µM) into Hsp90 (30 µM), inhibitors (300 µM) into Hsp90 (30 µM). Titrations of compounds into p50^Cdc37 were performed with similar compound/protein ratios. All experiments were conducted in 50 mM HEPES pH 7.5, 10 mM MgCl2 at 30 °C. For titration of inhibitors, the buffer contained 5% DMSO. Typically, an initial 0.5 µL injection was followed by 19 injections of 2.2 µL of syringe solution (compound or p50^Cdc37) into a 200 µL protein solution of Hsp90 constantly stirred at 1000 rpm, and data were recorded for 180 s between injections. Generation of heat due to dilution was determined in separate experiments by diluting protein into buffer and subtracting these as blank values for each injection. Corrected heat values were fitted using a nonlinear least squares curve-fitting algorithm (Microcal Origin 7.0) to obtain the stoichiometry (n), binding constants (Ka, Kd), and change in enthalpy for each enzyme-ligand interaction (ΔH).

Sequence of h(p)Hsp90β-FL (P08238 whole entry): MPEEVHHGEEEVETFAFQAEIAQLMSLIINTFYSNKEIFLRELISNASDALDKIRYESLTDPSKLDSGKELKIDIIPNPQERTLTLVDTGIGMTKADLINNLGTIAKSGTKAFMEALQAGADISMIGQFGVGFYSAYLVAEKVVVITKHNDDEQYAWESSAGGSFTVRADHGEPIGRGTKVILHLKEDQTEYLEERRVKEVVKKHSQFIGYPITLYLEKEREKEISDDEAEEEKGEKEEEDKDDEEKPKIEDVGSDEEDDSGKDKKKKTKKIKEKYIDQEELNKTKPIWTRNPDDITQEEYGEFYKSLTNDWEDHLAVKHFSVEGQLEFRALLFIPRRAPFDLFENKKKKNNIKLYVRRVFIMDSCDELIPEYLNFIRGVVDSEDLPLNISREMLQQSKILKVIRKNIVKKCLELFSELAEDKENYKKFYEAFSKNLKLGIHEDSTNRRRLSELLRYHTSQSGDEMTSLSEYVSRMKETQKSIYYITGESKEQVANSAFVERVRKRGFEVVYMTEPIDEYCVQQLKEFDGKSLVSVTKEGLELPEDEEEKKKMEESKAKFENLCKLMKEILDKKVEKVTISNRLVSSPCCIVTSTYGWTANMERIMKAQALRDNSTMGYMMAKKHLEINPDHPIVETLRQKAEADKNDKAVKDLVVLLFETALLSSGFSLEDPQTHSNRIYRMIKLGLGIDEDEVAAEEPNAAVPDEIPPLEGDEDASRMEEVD
Sequence of (p)Hsp90-p50^Cdc37 (P08238 whole entry): as above
Sequence of (p)Hsp90-(p)p50^Cdc37 (P08238 whole entry): as above
T5 sequence (P08238 with tags, fused parts or gaps DEL220-271/I272G/K273G/E274G/K275G): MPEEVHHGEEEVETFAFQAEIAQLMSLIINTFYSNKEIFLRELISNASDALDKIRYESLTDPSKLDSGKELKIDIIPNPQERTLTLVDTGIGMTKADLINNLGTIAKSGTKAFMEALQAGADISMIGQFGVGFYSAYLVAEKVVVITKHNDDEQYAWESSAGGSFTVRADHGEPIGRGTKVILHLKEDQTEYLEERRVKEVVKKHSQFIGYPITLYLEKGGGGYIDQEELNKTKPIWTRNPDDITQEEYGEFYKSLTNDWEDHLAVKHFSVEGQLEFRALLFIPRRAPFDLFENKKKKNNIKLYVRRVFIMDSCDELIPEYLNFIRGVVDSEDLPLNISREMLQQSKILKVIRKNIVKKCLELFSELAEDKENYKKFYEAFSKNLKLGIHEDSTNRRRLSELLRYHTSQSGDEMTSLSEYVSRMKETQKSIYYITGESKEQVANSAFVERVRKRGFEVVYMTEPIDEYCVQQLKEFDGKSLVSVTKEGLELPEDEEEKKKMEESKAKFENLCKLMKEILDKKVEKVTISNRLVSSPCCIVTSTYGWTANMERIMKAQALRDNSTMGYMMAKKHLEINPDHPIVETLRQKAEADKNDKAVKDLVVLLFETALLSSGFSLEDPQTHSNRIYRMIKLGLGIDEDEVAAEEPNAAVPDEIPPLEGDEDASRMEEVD
T6 sequence (P08238 with tags, fused parts or gaps DEL220-271/I272G/K273G/E274G/K275G): as above
T1 sequence (P08238 with tags, fused parts or gaps DEL220-271/I272G/K273G/E274G/K275G): as above
T7 sequence (P08238 1-219): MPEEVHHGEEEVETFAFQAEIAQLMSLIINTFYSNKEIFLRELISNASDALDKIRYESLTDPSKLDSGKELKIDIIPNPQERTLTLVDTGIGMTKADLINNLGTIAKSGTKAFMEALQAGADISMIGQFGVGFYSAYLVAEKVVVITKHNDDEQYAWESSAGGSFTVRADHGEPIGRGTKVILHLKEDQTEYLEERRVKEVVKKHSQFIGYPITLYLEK

Compound	Kd ([1]; ref [31]) [µM]	IC50 [2] [µM]	Kd [4] [µM]	IC50 ([5]; (p)Hsp90-p50^Cdc37) [µM]	IC50 [6] [µM]	IC50 [7] [µM]	effect on complex in GST pull-down [8]	Kd [9] [µM]	Kd [10] [µM]	effect on complex formation between Hsp90β and p50^Cdc37 [11]	inhibitory activity against the complex [7]	other results
Nc1ncnc2c1ncn2[C@@H]1O[C@H](COP(=O)(O)OP(=O)(O)OP(=O)(O)O)[C@@H](O)[C@H]1O [ATP]	240	> 1000	4.6	450 ± 150	230 ± 40	> 1000	stable complex	43	11			IC50 [3]: > 1000 µM; disruption of the phosphorylated complex [6]: remained largely ineffective
C=CCNC1=C2C[C@@H](C)C[C@H](OC)[C@H](O)[C@@H](C)/C=C(\C)[C@H](OC(N)=O)[C@@H](OC)/C=C\C=C(/C)C(=O)NC(=CC1=O)C2=O [17-AAG, Tanespimycin]										showed no effect		
CO[C@H]1/C=C\C=C(/C)C(=O)NC2=CC(=O)C(NCCN(C)C)=C(C[C@@H](C)C[C@H](OC)[C@H](O)[C@@H](C)/C=C(\C)[C@@H]1OC(N)=O)C2=O [17-DMAG]										showed no effect		Kd ([1]; ref [33]): 0.35 µM
O=C(O)CCc1nn(Cc2ccc(Cl)cc2Cl)c2cc(C(F)(F)F)ccc12 [H2-GMZ, H2-gamendazole]		> 1000		> 1000	> 1000	> 1000	ineffective				did not show appreciable inhibitory activity	binding potential towards Hsp90β ([4]; Figure 3): failed to display binding potential; inhibitory activity against the complex ([7]; listed as H2-gamendazole): did not affect the interaction of Hsp90 with p50^Cdc37 in vitro; protection of the complex from ADP in GST pull-down competition ([8]; in the presence of ADP, 0.1 mM radicicol): had no effect
C[C@@H]1C[C@H]2O[C@@H]2/C=C\C=C\C(=O)Cc2c(Cl)c(O)cc(O)c2C(=O)O1 [Radicicol]												Kd [12]: 0.019 µM
(p)p50^Cdc37: human p50^Cdc37 phosphorylated by CK2 at residue Ser13									1.9 ± 0.13			
CCNC(=O)c1noc(-c2cc(C(C)C)c(O)cc2O)c1-c1ccc(CN2CCOCC2)cc1 [NVP-AUY922]											did not show appreciable inhibitory activity	Kd ([1]; ref [32]): 0.0017 µM
COC1=C2C[C@@H](C)C[C@H](OC)[C@H](O)[C@@H](C)/C=C(\C)[C@H](OC(N)=O)[C@@H](OC)/C=C\C=C(/C)C(=O)NC(=CC1=O)C2=O [geldanamycin]												influence on complex formation [13]: did not influence complex formation
Nc1ncnc2c1ncn2[C@@H]1O[C@H](COP(=O)(O)OP(=O)(O)O)[C@@H](O)[C@H]1O [ADP]	7.2	400 ± 81	8.9	220 ± 24	32 ± 5.6	500 ± 94	inhibited formation of the complex; also recorded: caused disruption of the complex	11	13	did not exert inhibitory activity; also recorded: showed no effect		interaction of N-terminal Hsp90β with p50^Cdc37 in the presence of ADP [14]: abolished; IC50 [3]: 270 ± 35 µM; IC50 ([5]; span: phosphorylation of either Hsp90 or p50^Cdc37): 220 to 270 µM
Nc1ncnc2c1ncn2[C@@H]1O[C@H](COP(=O)(O)OP(=O)(O)NP(=O)(O)O)[C@@H](O)[C@H]1O [AMP-PNP]	148	> 1000	85	> 1000	> 1000	> 1000		84	590		did not show appreciable inhibitory activity	disruption of the phosphorylated complex [6]: remained largely ineffective
